The text below walks through data of patent US20050048001A1, “Pharmaceutical formulations of salmeterol” (priority 1999, published 2005).

This series can be described thus: Solubility of forms of salmeterol in ethanol/HFA mixtures. It counts as physicochemical. To be noted: mixtures of ethanol/HFA134a and ethanol/HFA227; relative to racemic salmeterol xinafoate. An excerpt:
FIG. 6: Chart to show the solubility of various forms of salmeterol in a number of different solvents.

For the compound `OCc1cc(C(O)CNCCCCCCOCCCCc2ccccc2)ccc1O` (stereo not drawn) [salmeterol base, 4-hydroxy-α^1-[[[6-(4-phenylbutoxy)hexyl]amino]methyl]-1,3-benzenedimethanol], the solubility entry is “substantially more soluble”.
To `O=C(O)c1ccc2ccccc2c1O.OCc1cc(C(O)CNCCCCCCOCCCCc2ccccc2)ccc1O` (centres unmarked) [R-salmeterol xinafoate] belongs “significantly more soluble”.
